Laboratory results published in US4584312A, “Substituted 2,3,4,9-tetrahydro-1H-carbazole-1-acetic acid, compositions and use” (American Home Products Corporation, priority 1985, dated 1986).

Tests used:
[1] = test system: Freund's complete adjuvant hind paw edema; test: Preventative Adjuvant Edema; assay type: in vivo, rat (Male Sprague Dawley); settings: 25 mg/kg, p.o.; rats; hind paw edema volume day 0 to day 3; dosed day 0, 1 and 2
Method: This test is a primary screen for anti-inflammatory drugs.
Male Sprague Dawley rats (180-200 g) are used. The animals have free access water but food is withdrawn 18 hours before testing.
Freund's complete adjuvant is prepared by suspending 5 mg killed and dried Mycobacterium butyricum (Difco) in 1 ml liquid paraffin. The test compounds are dissolved in distilled water or suspended in distilled water with a few drops of Tween 80 according to their solubility. […]
The method is essentially that described by Wax et al., J. Pharmacol. Exp. Ther., 192, 166-171 (1975). Groups of rats are injected intradermally in the left hind paw with 0.1 ml of Freund's complete adjuvant. The test compound or vehicle is administered immediately before the adjuvant, 24 hours and 48 hours after the adjuvant (day 0, 1 and 2). The injected hind paw volume is measured before the injection of adjuvant and 24 hrs. after the last drug administration (day 3) by means of a plethysmometer (Buxco Electronics Inc.). The difference between the hind paw volume on day 0 and day 3 represents the edema volume. Phenylbutazone (50 mg/kg, p.o.) is included as a positive control.
The mean edema volume (expressed as ml±SEM) IS calculated for each group and the percentage protection conferred by the drug is calculated: [formula] where c is the mean edema volume for the untreated controls and t is the mean edema volume for the drug treated group.

[2] = test system: phenylquinone-induced writhing; test: Phenylquinone Writhing in Mice; assay type: in vivo, mouse (Male Swiss albino); settings: 25 mg/kg, p.o., phenylquinone i.p. 60 minutes after dosing, writhes counted over 15 min
Method: A further test used to determine the utility of the compounds of the present invention is designated: DRUG EFFECTS ON PHENYLQUINONEINDUCED WRITHING IN MICE
The objective of this test is to determine the ability of test drugs to inhibit the nociceptive (pain) response of mice injected with a chemical irritant. This test is a primary screen for both peripheral and centrally acting analgesic drugs.
Male Swiss albino mice (15-25 g). The animals are fasted for 18 hours prior to use but have free access to water.
Drugs are dissolved or suspended according to their solubility in 0.5% methyl cellulose or 0.5% Tween 80. They are administered by gastric lavage in a volume of 5 ml/kg. For primary screening all drugs are administered at the arbitary dosage of 200 mg/kg, p.o. to a group of 10 mice.
A modification of the method of Siegmund et al., Proc. Soc. Exp. Biol. Med., 95, 729-731 (1957) is used. Groups of 5 mice are dosed with the test compound or vehicle control. Sixty minutes later the animals are injected i.p. with 0.3 ml/20 g body weight of a 0.02% solution of phenylquinone (PBQ; 2-phenyl-1,4-benzoquinone) and placed in individual observation boxes. The number of writhing or abdominal squirming movements made by each mouse during the following 15 min. period is counted. The experiment is repeated with another group of 5 mice and the mean number of writhes per mouse for a group of 10 mice is calculated.
Drug treated and vehicle-treated control groups are compared and the percentage protection conferred by the drug is calculated: [formula] where c=mean number of writhes in the control group where t=mean number of writhes in the test drug group

| Structure (SMILES) | % Inhibition (Preventative Adjuvant Edema) [1] | % Inhibition (Phenylquinone Writhing in Mice) [2] |
| --- | --- | --- |
| CCc1cccc2c3c([nH]c12)C(CC)(CC(=O)O)CCC3C1CCCC1 (single isomer, unassigned) [Example 2 d Isomer A, 4-cyclopentyl-1,8-diethyl-2,3,4,9-tetrahydro-1H-carbazole-1-acetic acid] | 0% | 35% |
| CCc1cccc2c3c([nH]c12)C(CC)(CC(=O)O)CCC3C1CC1 (single isomer, unassigned) [Example 1 f Isomer B, 4-Cyclopropyl-1,8-diethyl-2,3,4,9-tetrahydro-1H-carbazole-1-acetic Acid] | 12% | 49% |
| CCc1cccc2c3c([nH]c12)C(CC)(CC(=O)O)CCC3C1CC1 (single isomer, unassigned) [Example 1 f Isomer A, 4-Cyclopropyl-1,8-diethyl-2,3,4,9-tetrahydro-1H-carbazole-1-acetic Acid] | 0% | 31% |
| CCc1cccc2c3c([nH]c12)C(CC)(CC(=O)O)CCC3C1CCCC1 (single isomer, unassigned) [Example 2 c Isomer B, 4-Cyclopentyl-1,8-diethyl-2,3,4,9-tetrahydro-1H-carbazole-1-acetic acid] | 0% | 17% |
